Columns and labels:
Format in all cases: cell-based
[1] = biological target: proteins of U3A human fibrosarcoma cells (4462 proteins detected) (Homo sapiens, UniProt P20042); conditions: protein EIF2S2; U3A cells
[2] = biological target: proteins of U3A human fibrosarcoma cells (4462 proteins detected) (Homo sapiens, UniProt P11388); conditions: protein TOP2A; U3A cells
[3] = biological target: proteins of U3A human fibrosarcoma cells (4462 proteins detected) (Homo sapiens, UniProt Q5T2R2); conditions: protein PDSS1; U3A cells
Sequence of proteins of U3A human fibrosarcoma cells (4462 proteins detected) (Homo sapiens, UniProt Q5T2R2) (Q5T2R2 whole entry): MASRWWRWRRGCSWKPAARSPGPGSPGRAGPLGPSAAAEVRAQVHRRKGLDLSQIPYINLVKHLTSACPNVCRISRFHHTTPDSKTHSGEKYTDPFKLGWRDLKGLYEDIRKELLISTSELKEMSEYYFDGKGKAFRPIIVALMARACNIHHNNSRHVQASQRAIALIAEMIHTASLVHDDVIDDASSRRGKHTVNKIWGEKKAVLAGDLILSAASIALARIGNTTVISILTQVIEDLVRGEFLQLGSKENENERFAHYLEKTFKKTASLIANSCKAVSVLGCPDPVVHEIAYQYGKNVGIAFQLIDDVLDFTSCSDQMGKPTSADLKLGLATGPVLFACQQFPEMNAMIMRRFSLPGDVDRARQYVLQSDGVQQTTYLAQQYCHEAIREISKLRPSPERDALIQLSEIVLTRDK

[4] = biological target: proteins of U3A human fibrosarcoma cells (4462 proteins detected) (Homo sapiens, UniProt P35221); conditions: protein CTNNA1; U3A, 10 μM, 2 h
[5] = biological target: proteins of U3A human fibrosarcoma cells (4462 proteins detected) (Homo sapiens, UniProt Q92575); conditions: protein UBXN4; U3A cells
Sequence of proteins of U3A human fibrosarcoma cells (4462 proteins detected) (Homo sapiens, UniProt Q92575) (Q92575 whole entry): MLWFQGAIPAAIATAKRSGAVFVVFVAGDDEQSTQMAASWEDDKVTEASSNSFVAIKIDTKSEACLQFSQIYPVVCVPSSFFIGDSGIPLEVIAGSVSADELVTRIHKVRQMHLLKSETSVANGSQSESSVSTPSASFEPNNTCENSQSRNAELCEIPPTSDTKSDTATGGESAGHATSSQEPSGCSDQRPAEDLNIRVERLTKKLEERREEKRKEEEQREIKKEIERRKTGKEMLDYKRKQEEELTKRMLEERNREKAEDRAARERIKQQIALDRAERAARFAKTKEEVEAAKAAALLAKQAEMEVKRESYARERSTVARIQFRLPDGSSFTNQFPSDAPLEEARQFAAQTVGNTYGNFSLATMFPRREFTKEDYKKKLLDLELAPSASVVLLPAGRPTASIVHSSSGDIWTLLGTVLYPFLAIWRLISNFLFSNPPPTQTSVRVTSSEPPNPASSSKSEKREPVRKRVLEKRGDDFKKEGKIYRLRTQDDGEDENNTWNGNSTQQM

[6] = biological target: proteins of U3A human fibrosarcoma cells (4462 proteins detected) (Homo sapiens, UniProt Q9NS91); conditions: protein RAD18; U3A cells
[7] = biological target: proteins of U3A human fibrosarcoma cells (4462 proteins detected) (Homo sapiens, UniProt P56277); conditions: protein CMC4; U3A, 10 μM, 2 h
[8] = biological target: proteins of U3A human fibrosarcoma cells (4462 proteins detected) (Homo sapiens, UniProt Q86TB9); conditions: protein PATL1; U3A cells
[9] = biological target: proteins of U3A human fibrosarcoma cells (4462 proteins detected) (Homo sapiens, UniProt Q14353); conditions: protein GAMT; U3A, 10 μM, 2 h
[10] = biological target: proteins of U3A human fibrosarcoma cells (4462 proteins detected) (Homo sapiens, UniProt Q9Y385); conditions: protein UBE2J1; U3A cells
Sequence of proteins of U3A human fibrosarcoma cells (4462 proteins detected) (Homo sapiens, UniProt Q9Y385) (Q9Y385 whole entry): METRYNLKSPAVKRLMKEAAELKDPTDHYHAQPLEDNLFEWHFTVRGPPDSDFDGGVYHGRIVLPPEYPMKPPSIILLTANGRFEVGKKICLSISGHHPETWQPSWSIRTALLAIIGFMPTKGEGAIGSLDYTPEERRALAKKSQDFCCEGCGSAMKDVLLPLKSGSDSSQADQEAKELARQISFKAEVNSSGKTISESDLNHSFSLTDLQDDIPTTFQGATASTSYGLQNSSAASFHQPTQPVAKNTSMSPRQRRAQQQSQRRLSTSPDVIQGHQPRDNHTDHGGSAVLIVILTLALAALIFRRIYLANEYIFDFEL

[11] = biological target: proteins of U3A human fibrosarcoma cells (4462 proteins detected) (Homo sapiens, UniProt P49247); conditions: protein RPIA, U3A cells
[12] = biological target: proteins of U3A human fibrosarcoma cells (4462 proteins detected) (Homo sapiens, UniProt O75674); conditions: protein TOM1L1; soluble abundance after heat, U3A cells
Sequence of proteins of U3A human fibrosarcoma cells (4462 proteins detected) (Homo sapiens, UniProt O75674) (O75674 whole entry): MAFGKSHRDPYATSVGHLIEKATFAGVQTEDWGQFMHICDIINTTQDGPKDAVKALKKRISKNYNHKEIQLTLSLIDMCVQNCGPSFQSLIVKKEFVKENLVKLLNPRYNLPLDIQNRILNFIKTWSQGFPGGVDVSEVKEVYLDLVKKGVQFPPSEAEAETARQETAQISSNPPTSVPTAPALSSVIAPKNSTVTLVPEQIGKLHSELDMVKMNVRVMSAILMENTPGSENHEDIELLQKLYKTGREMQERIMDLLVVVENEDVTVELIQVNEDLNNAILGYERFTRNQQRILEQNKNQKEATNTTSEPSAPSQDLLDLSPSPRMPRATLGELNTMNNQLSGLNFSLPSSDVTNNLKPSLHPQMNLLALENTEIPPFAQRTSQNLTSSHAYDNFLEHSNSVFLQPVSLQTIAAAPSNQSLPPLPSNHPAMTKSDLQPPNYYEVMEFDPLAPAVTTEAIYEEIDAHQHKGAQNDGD

[13] = biological target: proteins of U3A human fibrosarcoma cells (4462 proteins detected) (Homo sapiens, UniProt Q9H8H0); conditions: protein NOL11; soluble abundance after heat, U3A cells
[14] = biological target: proteins of U3A human fibrosarcoma cells (4462 proteins detected) (Homo sapiens, UniProt Q9Y478); conditions: protein PRKAB1; U3A cells
Sequence of proteins of U3A human fibrosarcoma cells (4462 proteins detected) (Homo sapiens, UniProt Q9Y478) (Q9Y478 whole entry): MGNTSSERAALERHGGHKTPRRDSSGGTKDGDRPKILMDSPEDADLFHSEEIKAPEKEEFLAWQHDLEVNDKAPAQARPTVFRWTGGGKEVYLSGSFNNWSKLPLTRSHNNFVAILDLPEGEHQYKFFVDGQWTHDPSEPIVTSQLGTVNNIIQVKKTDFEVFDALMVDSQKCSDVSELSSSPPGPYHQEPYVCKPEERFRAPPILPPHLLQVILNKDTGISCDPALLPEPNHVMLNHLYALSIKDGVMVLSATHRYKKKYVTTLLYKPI

[15] = biological target: proteins of U3A human fibrosarcoma cells (4462 proteins detected) (Homo sapiens, UniProt Q15084); conditions: protein PDIA6; U3A cells
Sequence of proteins of U3A human fibrosarcoma cells (4462 proteins detected) (Homo sapiens, UniProt Q15084) (Q15084 20-440): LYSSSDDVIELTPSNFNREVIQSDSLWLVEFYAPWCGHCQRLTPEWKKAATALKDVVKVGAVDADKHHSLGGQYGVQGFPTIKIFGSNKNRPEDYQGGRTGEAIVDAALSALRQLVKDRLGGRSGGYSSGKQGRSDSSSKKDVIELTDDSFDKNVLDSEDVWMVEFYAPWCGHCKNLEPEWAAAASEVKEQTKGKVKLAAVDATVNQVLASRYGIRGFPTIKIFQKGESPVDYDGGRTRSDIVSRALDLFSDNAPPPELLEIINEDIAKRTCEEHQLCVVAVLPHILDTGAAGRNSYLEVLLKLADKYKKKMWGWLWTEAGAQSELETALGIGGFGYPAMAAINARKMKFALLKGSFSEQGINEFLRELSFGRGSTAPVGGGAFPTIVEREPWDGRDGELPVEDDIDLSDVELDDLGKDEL

[16] = biological target: proteins of U3A human fibrosarcoma cells (4462 proteins detected) (Homo sapiens, UniProt Q9UBQ5); conditions: protein EIF3K; U3A cells
Sequence of proteins of U3A human fibrosarcoma cells (4462 proteins detected) (Homo sapiens, UniProt Q9UBQ5) (Q9UBQ5 whole entry): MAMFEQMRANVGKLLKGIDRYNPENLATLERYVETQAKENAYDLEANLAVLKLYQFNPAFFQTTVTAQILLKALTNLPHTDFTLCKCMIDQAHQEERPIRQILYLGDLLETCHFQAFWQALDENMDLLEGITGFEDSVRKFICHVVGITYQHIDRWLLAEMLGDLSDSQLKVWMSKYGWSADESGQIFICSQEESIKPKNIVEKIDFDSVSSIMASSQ

[17] = biological target: proteins of U3A human fibrosarcoma cells (4462 proteins detected) (Homo sapiens, UniProt Q9HCN4); conditions: protein GPN1; soluble abundance after heat, U3A cells
[18] = biological target: proteins of U3A human fibrosarcoma cells (4462 proteins detected) (Homo sapiens, UniProt P52747); conditions: protein ZNF143; U3A, 10 μM, 2 h
[19] = biological target: proteins of U3A human fibrosarcoma cells (4462 proteins detected) (Homo sapiens, UniProt Q9Y6E2); conditions: protein BZW2; U3A cells
[20] = biological target: proteins of U3A human fibrosarcoma cells (4462 proteins detected) (Homo sapiens, UniProt Q9HAN9); conditions: protein NMNAT1, U3A cells
[21] = biological target: proteins of U3A human fibrosarcoma cells (4462 proteins detected) (Homo sapiens, UniProt P04183); conditions: protein TK1; U3A cells
Sequence of proteins of U3A human fibrosarcoma cells (4462 proteins detected) (Homo sapiens, UniProt P04183) (P04183 whole entry): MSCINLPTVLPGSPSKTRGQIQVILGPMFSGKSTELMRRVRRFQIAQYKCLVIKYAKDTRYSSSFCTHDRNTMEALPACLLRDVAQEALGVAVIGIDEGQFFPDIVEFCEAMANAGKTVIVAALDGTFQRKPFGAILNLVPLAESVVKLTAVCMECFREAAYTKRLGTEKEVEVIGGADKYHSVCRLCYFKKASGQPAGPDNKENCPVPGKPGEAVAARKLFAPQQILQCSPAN

[22] = biological target: proteins of U3A human fibrosarcoma cells (4462 proteins detected) (Homo sapiens, UniProt P36542); conditions: protein ATP5C1; U3A cells
[23] = biological target: proteins of U3A human fibrosarcoma cells (4462 proteins detected) (Homo sapiens, UniProt Q9UNZ2); conditions: protein NSFL1C, U3A cells
Sequence of proteins of U3A human fibrosarcoma cells (4462 proteins detected) (Homo sapiens, UniProt Q9UNZ2) (Q9UNZ2 whole entry): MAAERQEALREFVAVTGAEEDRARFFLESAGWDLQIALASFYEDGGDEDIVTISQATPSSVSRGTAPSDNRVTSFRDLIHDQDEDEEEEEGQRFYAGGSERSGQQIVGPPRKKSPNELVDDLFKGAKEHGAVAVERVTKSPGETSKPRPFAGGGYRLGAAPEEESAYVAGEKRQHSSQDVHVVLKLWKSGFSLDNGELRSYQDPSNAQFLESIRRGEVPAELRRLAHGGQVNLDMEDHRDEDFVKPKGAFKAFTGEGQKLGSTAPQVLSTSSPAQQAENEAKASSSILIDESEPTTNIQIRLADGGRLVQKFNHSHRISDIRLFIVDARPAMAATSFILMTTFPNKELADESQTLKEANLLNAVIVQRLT

[24] = biological target: proteins of U3A human fibrosarcoma cells (4462 proteins detected) (Homo sapiens, UniProt Q9NYJ1); conditions: protein COA4; U3A cells
[25] = biological target: proteins of U3A human fibrosarcoma cells (4462 proteins detected) (Homo sapiens, UniProt Q6SPF0); conditions: protein SAMD1; soluble abundance after heat, U3A cells
Sequence of proteins of U3A human fibrosarcoma cells (4462 proteins detected) (Homo sapiens, UniProt Q6SPF0) (Q6SPF0 whole entry): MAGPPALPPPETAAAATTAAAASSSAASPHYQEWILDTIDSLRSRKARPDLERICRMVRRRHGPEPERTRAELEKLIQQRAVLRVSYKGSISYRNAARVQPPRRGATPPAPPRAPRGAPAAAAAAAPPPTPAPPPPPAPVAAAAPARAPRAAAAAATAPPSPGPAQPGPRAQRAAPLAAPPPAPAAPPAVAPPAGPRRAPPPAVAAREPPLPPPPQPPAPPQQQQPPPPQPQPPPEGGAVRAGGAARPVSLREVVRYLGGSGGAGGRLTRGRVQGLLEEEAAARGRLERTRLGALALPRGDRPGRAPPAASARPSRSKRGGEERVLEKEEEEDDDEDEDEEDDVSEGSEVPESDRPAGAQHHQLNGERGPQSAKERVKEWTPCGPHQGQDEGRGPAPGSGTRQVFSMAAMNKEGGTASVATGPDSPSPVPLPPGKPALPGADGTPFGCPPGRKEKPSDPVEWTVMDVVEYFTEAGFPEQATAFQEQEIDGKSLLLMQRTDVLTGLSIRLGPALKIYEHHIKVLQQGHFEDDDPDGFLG

[26] = biological target: proteins of U3A human fibrosarcoma cells (4462 proteins detected) (Homo sapiens, UniProt Q9H944); conditions: protein MED20; U3A cells
Sequence of proteins of U3A human fibrosarcoma cells (4462 proteins detected) (Homo sapiens, UniProt Q9H944) (Q9H944 whole entry): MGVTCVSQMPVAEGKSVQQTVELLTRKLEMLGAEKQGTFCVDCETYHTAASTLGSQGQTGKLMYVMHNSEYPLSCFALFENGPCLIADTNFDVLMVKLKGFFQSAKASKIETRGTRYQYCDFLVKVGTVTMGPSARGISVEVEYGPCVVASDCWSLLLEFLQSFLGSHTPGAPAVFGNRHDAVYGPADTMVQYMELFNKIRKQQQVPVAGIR

[27] = biological target: proteins of U3A human fibrosarcoma cells (4462 proteins detected) (Homo sapiens, UniProt Q96EQ0); conditions: protein SGTB, U3A cells
[28] = biological target: proteins of U3A human fibrosarcoma cells (4462 proteins detected) (Homo sapiens, UniProt Q15397); conditions: protein KIAA0020; U3A cells
Sequence of proteins of U3A human fibrosarcoma cells (4462 proteins detected) (Homo sapiens, UniProt Q15397) (Q15397 whole entry): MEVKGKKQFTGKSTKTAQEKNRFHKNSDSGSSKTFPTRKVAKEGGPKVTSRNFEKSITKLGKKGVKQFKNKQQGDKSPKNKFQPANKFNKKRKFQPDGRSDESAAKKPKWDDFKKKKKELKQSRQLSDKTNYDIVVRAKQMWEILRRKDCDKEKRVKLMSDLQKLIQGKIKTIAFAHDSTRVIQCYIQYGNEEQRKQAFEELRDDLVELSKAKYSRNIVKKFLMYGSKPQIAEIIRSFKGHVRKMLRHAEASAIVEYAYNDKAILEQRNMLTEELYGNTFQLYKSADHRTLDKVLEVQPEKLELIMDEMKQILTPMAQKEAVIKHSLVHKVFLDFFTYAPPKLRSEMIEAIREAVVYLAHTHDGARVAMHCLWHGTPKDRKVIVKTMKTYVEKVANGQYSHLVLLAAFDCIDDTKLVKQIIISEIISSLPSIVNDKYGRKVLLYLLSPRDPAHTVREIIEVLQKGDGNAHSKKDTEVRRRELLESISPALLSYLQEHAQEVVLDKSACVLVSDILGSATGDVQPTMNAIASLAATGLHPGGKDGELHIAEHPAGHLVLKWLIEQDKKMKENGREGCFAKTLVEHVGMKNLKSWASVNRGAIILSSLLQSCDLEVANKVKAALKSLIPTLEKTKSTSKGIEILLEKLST

[29] = biological target: proteins of U3A human fibrosarcoma cells (4462 proteins detected) (Homo sapiens, UniProt Q53H96); conditions: protein PYCRL; U3A, 10 μM, 2 h
Sequence of proteins of U3A human fibrosarcoma cells (4462 proteins detected) (Homo sapiens, UniProt Q53H96) (Q53H96 whole entry): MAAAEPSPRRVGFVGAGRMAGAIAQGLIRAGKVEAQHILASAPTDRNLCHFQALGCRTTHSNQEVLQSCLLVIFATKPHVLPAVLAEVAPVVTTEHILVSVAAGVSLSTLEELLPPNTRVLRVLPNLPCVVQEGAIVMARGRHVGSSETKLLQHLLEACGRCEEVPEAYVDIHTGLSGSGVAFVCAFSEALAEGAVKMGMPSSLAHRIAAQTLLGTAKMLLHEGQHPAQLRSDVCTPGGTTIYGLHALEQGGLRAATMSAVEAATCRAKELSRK

[30] = biological target: proteins of U3A human fibrosarcoma cells (4462 proteins detected) (Homo sapiens, UniProt Q9BY89); conditions: protein KIAA1671, U3A cells

SMILES: CCc1nc(N)nc(N)c1-c1ccc(Cl)cc1 [pyrimethamine]
- Log2 (PYR/DMSO) [1]: 0.17
- Log2 (PYR/DMSO) [2]: 0.18
- Log2 (PYR/DMSO) [3]: 0.20
- Log2 (PYR/DMSO), CTNNA1 [4]: 0.23
- Log2 (PYR/DMSO) [5]: 0.18
- Log2 (PYR/DMSO) [6]: 0.17
- Log2 (PYR/DMSO), CMC4 [7]: 0.24
- Log2 (PYR/DMSO) [8]: 0.22
- Log2 (PYR/DMSO), GAMT [9]: -0.27
- Log2 (PYR/DMSO) [10]: 0.22
- Log2 (PYR/DMSO) [11]: -0.05
- Log2 (PYR/DMSO) [12]: 0.15
- Log2 (PYR/DMSO) [13]: 0.14
- Log2 (PYR/DMSO) [14]: 0.23
- Log2 (PYR/DMSO) [15]: 0.16
- Log2 (PYR/DMSO) [16]: 0.20
- Log2 (PYR/DMSO) [17]: 0.15
- Log2 (PYR/DMSO), ZNF143 [18]: -0.16
- Log2 (PYR/DMSO) [19]: 0.19
- Log2 (PYR/DMSO) [20]: -0.04
- Log2 (PYR/DMSO) [21]: 0.19
- Log2 (PYR/DMSO) [22]: 0.21
- Log2 (PYR/DMSO) [23]: -0.04
- Log2 (PYR/DMSO) [24]: 0.18
- Log2 (PYR/DMSO) [25]: 0.15
- Log2 (PYR/DMSO) [26]: 0.18
- Log2 (PYR/DMSO) [27]: -0.04
- Log2 (PYR/DMSO) [28]: 0.18
- Log2 (PYR/DMSO), PYCRL [29]: -0.15
- Log2 (PYR/DMSO) [30]: -0.03
